Measurements: patent US20250312352A1, “GLP-1R MODULATING COMPOUNDS” (Gilead Sciences, Inc., priority 2021, published 2025)
One block for each compound: values may come before it.

Molecular target: T1, GLP-1R (Homo sapiens, UniProt P43220)
T1 construct: host or cells: CHO cells
Experiment: GLP-1R activation cAMP assay (Assay 1 or Assay 2)
Format: cell-based
Conditions: cAMP increase in CHO cells stably expressing GLP-1R; compounds run on one of the two cAMP assays
Outline: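 EC50 values come from a sigmoidal fit of HTRF-detected cAMP rise versus log agonist concentration. GLP-1R-expressing CHO cells, equilibrated 1 h at 37 °C in HBSS with HEPES and BSA, received a 10-point compound dose series for 30 min before detection.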

T1 sequence (P43220 24-463): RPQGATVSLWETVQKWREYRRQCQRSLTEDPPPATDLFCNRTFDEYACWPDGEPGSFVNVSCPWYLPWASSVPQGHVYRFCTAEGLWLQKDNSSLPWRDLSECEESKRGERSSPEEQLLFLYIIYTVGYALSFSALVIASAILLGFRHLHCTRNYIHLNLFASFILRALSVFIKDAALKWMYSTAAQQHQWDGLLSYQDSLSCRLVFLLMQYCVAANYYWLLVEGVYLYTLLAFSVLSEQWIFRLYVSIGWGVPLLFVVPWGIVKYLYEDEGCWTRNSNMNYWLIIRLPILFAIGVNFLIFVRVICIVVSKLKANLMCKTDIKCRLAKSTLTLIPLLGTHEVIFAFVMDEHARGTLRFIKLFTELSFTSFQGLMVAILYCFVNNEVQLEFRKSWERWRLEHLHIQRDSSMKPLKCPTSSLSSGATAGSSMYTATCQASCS

SMILES: O=C(O)c1ccc2nc(Cc3cc(F)c(-c4cccc(OCc5ccn(CC(F)F)n5)n4)cc3F)n(C[C@@H]3CCO3)c2c1 [Example 64, (S)-2-(4-(6-((1-(2,2-difluoroethyl)-1H-pyrazol-3-yl)methoxy)pyridin-2-yl)-2,5-difluorobenzyl)-1-(oxetan-2-ylmethyl)-1H-benzo[d]imidazole-6-carboxylic acid]
EC50: 6.38 nM

SMILES: N#CC1(NC(=O)c2cc(Cl)c(COc3cccc(-c4cc(F)c(Cc5nc6c(F)cc(C(=O)O)cc6n5C[C@@H]5CCO5)cc4F)n3)cn2)CCC1 [Example 190, (S)-2-(4-(6-((4-chloro-6-((1-cyanocyclobutyl)carbamoyl)pyridin-3-yl)methoxy)pyridin-2-yl)-2,5-difluorobenzyl)-4-fluoro-1-(oxetan-2-ylmethyl)-1H-benzo[d]imidazole-6-carboxylic acid]
EC50: 0.2 nM

SMILES: COCCn1c(Cc2cc(F)c(-c3cccc(OCc4cnn(-c5ccccc5)c4)n3)cc2F)nc2ccc(C(=O)O)cc21 [Example 121, 2-(2,5-difluoro-4-(6-((1-phenyl-1H-pyrazol-4-yl)methoxy)pyridin-2-yl)benzyl)-1-(2-methoxyethyl)-1H-benzo[d]imidazole-6-carboxylic acid]
EC50: 730 nM

SMILES: O=C(O)c1ccc2nc(Cc3cc(F)c(-c4cccc(OCc5ccn(CC(F)(F)F)n5)n4)cc3F)n(C[C@@H]3CCO3)c2c1 [Example 66, (S)-2-(2,5-difluoro-4-(6-((1-(2,2,2-trifluoroethyl)-1H-pyrazol-3-yl)methoxy)pyridin-2-yl)benzyl)-1-(oxetan-2-ylmethyl)-1H-benzo[d]imidazole-6-carboxylic acid]
EC50: 6.65 nM

SMILES: Cc1ncc(C#Cc2ccc(COc3cccc(-c4cc(F)c(Cc5nc6ccc(C(=O)O)cc6n5C[C@@H]5CCO5)cc4F)n3)c(F)c2)o1 [Example 136, (S)-2-(2,5-difluoro-4-(6-((2-fluoro-4-((2-methyloxazol-5-yl)ethynyl)benzyl)oxy)pyridin-2-yl)benzyl)-1-(oxetan-2-ylmethyl)-1H-benzo[d]imidazole-6-carboxylic acid]
EC50: 0.25 nM

SMILES: COCCn1c(Cc2cc(F)c(-c3cccc(OCc4ccc(C#CC5CN(C(=O)OC)C5)cc4F)n3)cc2F)nc2ccc(C(=O)O)cc21 [Example 235, 2-[[2,5-difluoro-4-[6-[[2-fluoro-4-[2-(1-methoxycarbonylazetidin-3-yl)ethynyl]phenyl]methoxy]-2-pyridyl]phenyl]methyl]-3-(2-methoxyethyl)benzimidazole-5-carboxylic acid]
EC50: 1.1 nM

SMILES: COCCn1c(Cc2cc(F)c(-c3cccc(OCc4ccc(C(N)=O)nc4)n3)cc2F)nc2ccc(C(=O)O)cc21 [Example 174, 2-(4-(6-((6-carbamoylpyridin-3-yl)methoxy)pyridin-2-yl)-2,5-difluorobenzyl)-1-(2-methoxyethyl)-1H-benzo[d]imidazole-6-carboxylic acid]
EC50: 40.6 nM

SMILES: O=C(O)c1ccc2nc(Cc3cc(F)c(-c4cccc(OCc5ncc(C(F)F)s5)n4)cc3F)n(C[C@@H]3CCO3)c2c1 [Example 58, (S)-2-(4-(6-((5-(difluoromethyl)thiazol-2-yl)methoxy)pyridin-2-yl)-2,5-difluorobenzyl)-1-(oxetan-2-ylmethyl)-1H-benzo[d]imidazole-6-carboxylic acid]
EC50: 0.14 nM

SMILES: Cn1ccc(COc2cccc(-c3cc(F)c(Cc4nc5ccc(C(=O)O)cc5n4C[C@@H]4CCO4)cc3F)n2)n1 [Example 124, (S)-2-(2,5-difluoro-4-(6-((1-methyl-1H-pyrazol-3-yl)methoxy)pyridin-2-yl)benzyl)-1-(oxetan-2-ylmethyl)-1H-benzo[d]imidazole-6-carboxylic acid]
EC50: 0.81 nM

SMILES: N#CC1(NC(=O)c2cc(Cl)c(COc3cccc(-c4cc(F)c(Cc5nc6ccc(C(=O)O)cc6n5C[C@@H]5CCO5)cc4F)n3)cn2)CCC1 [Example 189, (S)-2-(4-(6-((4-chloro-6-((1-cyanocyclobutyl)carbamoyl)pyridin-3-yl)methoxy)pyridin-2-yl)-2,5-difluorobenzyl)-1-(oxetan-2-ylmethyl)-1H-benzo[d]imidazole-6-carboxylic acid]
EC50: 0.3 nM

SMILES: NC(=O)c1cc(F)c(COc2cccc(-c3cc(F)c(Cc4nc5ccc(C(=O)O)cc5n4C[C@@H]4CCO4)cc3F)n2)cc1F [Example 172, (S)-2-(4-(6-((4-carbamoyl-2,5-difluorobenzyl)oxy)pyridin-2-yl)-2,5-difluorobenzyl)-1-(oxetan-2-ylmethyl)-1H-benzo[d]imidazole-6-carboxylic acid]
EC50: 2.57 nM

SMILES: COCCn1c(Cc2cc(F)c(-c3cccc(OCc4ccc(C(=O)NC5CC5)cc4)n3)cc2F)nc2ccc(C(=O)O)cc21 [Example 249, 2-[[4-[6-[[4-(cyclopropylcarbamoyl)phenyl]methoxy]-2-pyridyl]-2,5-difluoro-phenyl]methyl]-3-(2-methoxyethyl)benzimidazole-5-carboxylic acid]
EC50: 36.1 nM

Continued, values first:

EC50: 0.363 nM
SMILES: O=C(O)c1ccc2nc(Cc3cc(F)c(-c4cccc(OCc5ccc(C#Cc6cncnc6)cc5)n4)cc3F)n(C[C@@H]3CCO3)c2c1 [Example 405, (S)-2-(2,5-difluoro-4-(6-((4-(pyrimidin-5-ylethynyl)benzyl)oxy)pyridin-2-yl)benzyl)-1-(oxetan-2-ylmethyl)-1H-benzo[d]imidazole-6-carboxylic acid]

EC50: 0.044 nM
SMILES: COc1nnc(COc2cccc(-c3cc(F)c(Cc4nc5ccc(C(=O)O)cc5n4[C@@H]4COCC4(C)C)cc3C)n2)s1 [Example 261, (S)-1-(4,4-dimethyltetrahydrofuran-3-yl)-2-(2-fluoro-4-(6-((5-methoxy-1,3,4-thiadiazol-2-yl)methoxy)pyridin-2-yl)-5-methylbenzyl)-1H-benzo[d]imidazole-6-carboxylic acid]

EC50: 0.451 nM
SMILES: O=C(O)c1ccc2nc(Cc3cc(F)c(-c4cccc(OCc5ncc(C#CC6(C(F)F)CC6)s5)n4)cc3F)n(C[C@@H]3CCO3)c2c1 [Example 326, (S)-2-(4-(6-((5-((1-(difluoromethyl)cyclopropyl)ethynyl)thiazol-2-yl)methoxy)pyridin-2-yl)-2,5-difluorobenzyl)-1-(oxetan-2-ylmethyl)-1H-benzo[d]imidazole-6-carboxylic acid]

EC50: 0.129 nM
SMILES: N#Cc1cccc(C#Cc2cnc(COc3cccc(-c4cc(F)c(Cc5nc6ccc(C(=O)O)cc6n5C[C@@H]5CCO5)cc4F)n3)s2)c1 [Example 316, (S)-2-(4-(6-((5-((3-cyanophenyl)ethynyl)thiazol-2-yl)methoxy)pyridin-2-yl)-2,5-difluorobenzyl)-1-(oxetan-2-ylmethyl)-1H-benzo[d]imidazole-6-carboxylic acid]

EC50: 0.772 nM
SMILES: CC1(C)COCC1n1c(Cc2cc(F)c(-c3cccc(OCc4ncc(C(F)F)s4)n3)cc2F)nc2c(F)cc(C(=O)O)cc21 (stereo not drawn) [Example 341, 2-(4-(6-((5-(difluoromethyl)thiazol-2-yl)methoxy)pyridin-2-yl)-2,5-difluorobenzyl)-1-(4,4-dimethyltetrahydrofuran-3-yl)-4-fluoro-1H-benzo[d]imidazole-6-carboxylic acid]

EC50: 1.27 nM
SMILES: O=C(O)c1ccc2nc(Cc3cc(F)c(-c4cccc(OCc5ncc(-c6ccc(C(F)(F)F)cc6)s5)n4)cc3F)n(C[C@H]3CCO3)c2c1 [Example 382, (R)-2-(2,5-difluoro-4-(6-((5-(4-(trifluoromethyl)phenyl)thiazol-2-yl)methoxy)pyridin-2-yl)benzyl)-1-(oxetan-2-ylmethyl)-1H-benzo[d]imidazole-6-carboxylic acid]

EC50: 0.384 nM
SMILES: CC1(C)COC[C@H]1n1c(Cc2cc(F)c(-c3ccnc(OCc4ccc(Cl)s4)n3)cc2F)nc2ccc(C(=O)O)cc21 [Example 418, (S)-2-(4-(2-((5-chlorothiophen-2-yl)methoxy)pyrimidin-4-yl)-2,5-difluorobenzyl)-1-(4,4-dimethyltetrahydrofuran-3-yl)-1H-benzo[d]imidazole-6-carboxylic acid]

EC50: 0.081 nM
SMILES: O=C(O)c1cc(F)c2nc(Cc3c(F)cc(-c4cccc(OCc5ncc(C(F)(F)F)s5)n4)c(F)c3F)n(C[C@@H]3CCO3)c2c1 [Example 449, (S)-4-fluoro-1-(oxetan-2-ylmethyl)-2-(2,3,6-trifluoro-4-(6-((5-(trifluoromethyl)thiazol-2-yl)methoxy)pyridin-2-yl)benzyl)-1H-benzo[d]imidazole-6-carboxylic acid]

EC50: 0.02 nM
SMILES: O=C(O)c1cc(F)c2nc(Cc3c(F)cc(-c4ccc(F)c(OCc5ncc(C(F)(F)F)s5)n4)c(F)c3F)n(C[C@@H]3CCO3)c2c1 [Example 447, (S)-4-fluoro-1-(oxetan-2-ylmethyl)-2-(2,3,6-trifluoro-4-(5-fluoro-6-((5-(trifluoromethyl)thiazol-2-yl)methoxy)pyridin-2-yl)benzyl)-1H-benzo[d]imidazole-6-carboxylic acid]

EC50: 0.823 nM
SMILES: Cn1cc(C#Cc2cc(Cl)c(COc3cccc(-c4cc(F)c(Cc5nc6ccc(C(=O)O)cc6n5C[C@@H]5CCO5)cc4F)n3)cn2)cn1 [Example 300, (S)-2-(4-(6-((4-chloro-6-((1-methyl-1H-pyrazol-4-yl)ethynyl)pyridin-3-yl)methoxy)pyridin-2-yl)-2,5-difluorobenzyl)-1-(oxetan-2-ylmethyl)-1H-benzo[d]imidazole-6-carboxylic acid]

EC50: 0.689 nM
SMILES: N#Cc1ccc(C#Cc2cnc(COc3cccc(-c4cc(F)c(Cc5nc6ccc(C(=O)O)cc6n5C[C@@H]5CCO5)cc4F)n3)nc2)cc1 [Example 404, (S)-2-(4-(6-((5-((4-cyanophenyl)ethynyl)pyrimidin-2-yl)methoxy)pyridin-2-yl)-2,5-difluorobenzyl)-1-(oxetan-2-ylmethyl)-1H-benzo[d]imidazole-6-carboxylic acid]

EC50: 0.096 nM
SMILES: CC1(C)COC[C@H]1n1c(Cc2cc(F)c(-c3cccc(OCc4sc(C#N)cc4F)n3)cc2F)nc2ccc(C(=O)O)cc21 [Example 419, (S)-2-(4-(6-((5-cyano-3-fluorothiophen-2-yl)methoxy)pyridin-2-yl)-2,5-difluorobenzyl)-1-(4,4-dimethyltetrahydrofuran-3-yl)-1H-benzo[d]imidazole-6-carboxylic acid]
